# Results reported in ChEMBL document CHEMBL5143521, “Identification of a selective BRD4 PROTAC with potent antiproliferative effects in AR-positive prostate cancer based on a dual BET/PLK1 inhibitor” (Eur J Med Chem, 2022).
# Active and inactive are the calls of the source. No cut-off for these calls is given here.
# Legend:
# [1] = biological target: Serine/threonine-protein kinase PLK1 (Homo sapiens, UniProt P53350); test: Inhibition of recombinant full length human PLK1 using casein as substrate incubated for 40 mins in presence of [gamma-33P]-ATP by radiometric scintillation counting method
# Serine/threonine-protein kinase PLK1, sequence (P53350 whole entry): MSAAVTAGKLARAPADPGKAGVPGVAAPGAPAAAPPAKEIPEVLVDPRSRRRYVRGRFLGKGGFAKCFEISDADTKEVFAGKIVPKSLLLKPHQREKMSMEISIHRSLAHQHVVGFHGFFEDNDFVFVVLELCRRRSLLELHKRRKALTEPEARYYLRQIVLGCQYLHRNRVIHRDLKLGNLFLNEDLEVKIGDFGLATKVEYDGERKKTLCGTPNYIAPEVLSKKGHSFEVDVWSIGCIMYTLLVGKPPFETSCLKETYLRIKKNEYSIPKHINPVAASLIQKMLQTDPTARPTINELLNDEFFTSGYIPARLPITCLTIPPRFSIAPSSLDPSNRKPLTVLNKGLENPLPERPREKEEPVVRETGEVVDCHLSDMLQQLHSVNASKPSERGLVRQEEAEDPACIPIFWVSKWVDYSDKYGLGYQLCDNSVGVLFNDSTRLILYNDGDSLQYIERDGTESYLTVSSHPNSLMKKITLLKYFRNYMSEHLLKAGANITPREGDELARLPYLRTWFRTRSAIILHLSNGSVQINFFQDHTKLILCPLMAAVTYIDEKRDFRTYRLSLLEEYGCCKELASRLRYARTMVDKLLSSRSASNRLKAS
# [2] = biological target: Bromodomain-containing protein 4 (Homo sapiens, UniProt O60885); test: Inhibition of BRD4 (unknown origin) by alpha-screen assay
# MV4-11 = test: Antiproliferative activity against human MV4-11 cells assessed as reduction in cell viability measured after 4 days by MTT assay; assay type: functional, cell-based; settings: MV4-11, 96 h
# DU-145 [3] = test: Antiproliferative activity against AR-negative human castration resistant DU-145 cells assessed as reduction in cell viability measured after 4 days by MTT assay; assay type: functional, cell-based; settings: DU-145, 96 h
# PC-3 [4] = test: Antiproliferative activity against AR-negative human castration resistant PC-3 cells assessed as reduction in cell viability measured after 4 days by MTT assay; assay type: functional, cell-based; settings: PC-3, 96 h
# VCaP [5] = test: Antiproliferative activity against AR-positive human VCaP cells assessed as reduction in cell viability measured after 4 days by MTT assay; assay type: functional, cell-based; settings: 96 h
# LNCaP [6] = test: Antiproliferative activity against AR-positive harmone sensitive human LNCaP cells assessed as reduction in cell viability measured after 4 days by MTT assay; assay type: functional, cell-based; settings: 96 h
# CWR22R [7] = test: Antiproliferative activity against AR-positive human 22Rv1 cells assessed as reduction in cell viability measured after 4 days by MTT assay; assay type: functional, cell-based; settings: 22Rv1, 96 h
# CWR22R [8] = test: Inhibition of colony formation in AR-positive human 22Rv1 cells at 1 nM measured after 12 days by crystal violet staining based assay; assay type: functional, cell-based; settings: time 12.0 day
# PC-3 [9] = test: Inhibition of colony formation in AR-negative human castration resistant PC-3 cells at 1 nM measured after 12 days by crystal violet staining based assay; assay type: functional, cell-based; settings: time 12.0 day
# DU-145 [10] = test: Inhibition of colony formation in AR-negative human castration resistant DU-145 cells at 1 nM measured after 12 days by crystal violet staining based assay; assay type: functional, cell-based; settings: time 12.0 day
# LNCaP [11] = test: Antiproliferative activity against AR-positive harmone sensitive human LNCaP cells assessed as reduction in cell viability at 1 nM incubated for 3 days followed by compound washout and measured after 8 days; assay type: functional; settings: 72 h, time 3 day
# CWR22R [12] = test: Antiproliferative activity against AR-positive human 22Rv1 cells assessed as reduction in cell viability at 1 nM incubated for 3 days followed by compound washout and measured after 8 days; assay type: functional; settings: 22Rv1, 72 h, time 3 day
# DU-145 [13] = test: Antiproliferative activity against negative human castration resistant DU-145 cells assessed as reduction in cell viability at 1 nM incubated for 3 days followed by compound washout and measured after 8 days; assay type: functional, cell-based; settings: time 3.0 day
# CWR22R [14] = test: Induction of cell cycle arrest in AR-positive human 22Rv1 cells assessed as accumulation of cells at G2/M phase at 1 to 3 uM measured after 72 hrs by flow cytometry analysis; assay type: functional, cell-based; settings: dose 1-3 µM
# CWR22R [15] = test: Induction of cell cycle arrest in AR-positive human 22Rv1 cells assessed as downregulation of CDK2 expression at 1 to 3 uM measured after 72 hrs by Western blot analysis; assay type: functional, cell-based; settings: dose 1-3 µM
# CWR22R [16] = test: Induction of cell cycle arrest in AR-positive human 22Rv1 cells assessed as downregulation of CDK6 expression at 1 to 3 uM measured after 72 hrs by Western blot analysis; assay type: functional, cell-based; settings: dose 1-3 µM
# CWR22R [17] = test: Induction of cell cycle arrest in AR-positive human 22Rv1 cells assessed as downregulation of cyclin D1 expression at 1 to 3 uM measured after 72 hrs by Western blot analysis; assay type: functional, cell-based; settings: dose 1-3 µM
# CWR22R [18] = test: Induction of cell cycle arrest in AR-positive human 22Rv1 cells assessed as downregulation of cyclin E expression at 1 to 3 uM measured after 72 hrs by Western blot analysis; assay type: functional, cell-based; settings: dose 1-3 µM
# CWR22R [19] = test: Induction of cell cycle arrest in AR-positive human 22Rv1 cells assessed as upregulation of cyclin B1 expression at 1 to 3 uM measured after 72 hrs by Western blot analysis; assay type: functional, cell-based; settings: dose 1-3 µM
# [20] = biological target: Protein cereblon/Bromodomain-containing protein 4 (Homo sapiens) (UniProt O60885+Q96SW2); test: Protac activity at BRD4/CRBN in human VCaP cells assessed as degradation of BRD4 by measuring downregulation of BRD4 expression level at 10 nM incubated for 24 hrs by immunoblotting analysis; assay type: cell-based
# Protein cereblon/Bromodomain-containing protein 4 (Homo sapiens), sequence (Q96SW2 whole entry, looked up, other chains not shown): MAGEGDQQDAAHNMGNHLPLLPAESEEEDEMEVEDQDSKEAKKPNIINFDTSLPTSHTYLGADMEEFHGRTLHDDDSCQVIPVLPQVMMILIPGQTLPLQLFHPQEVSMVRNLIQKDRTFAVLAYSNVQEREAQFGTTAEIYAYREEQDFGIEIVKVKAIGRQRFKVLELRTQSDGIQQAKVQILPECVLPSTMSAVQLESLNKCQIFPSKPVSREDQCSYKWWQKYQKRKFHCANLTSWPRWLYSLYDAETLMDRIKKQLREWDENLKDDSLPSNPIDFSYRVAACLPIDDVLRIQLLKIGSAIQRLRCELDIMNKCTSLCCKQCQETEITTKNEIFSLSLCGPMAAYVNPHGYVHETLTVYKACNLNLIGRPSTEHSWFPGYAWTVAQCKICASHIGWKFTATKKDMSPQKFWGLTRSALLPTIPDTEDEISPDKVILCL
# VCaP [21] = test: Inhibition of c-Myc expression level in human VCap cells at 10 nM incubated for 24 hrs by immunoblotting analysis; assay type: functional, cell-based
IC50 [1] [nM],IC50 [2] [nM],IC50 (MV4-11) [nM],Compound,further results
1340,311,753,CC[C@@H]1c2nnc(C)n2-c2cnc(Nc3ccc(C(=O)NC4CCN(C(=O)CCCCNc5cccc6c5CN(C5CCC(=O)NC5=O)C6=O)CC4)cc3OC)nc2N1CC1CCCCC1 (some centres not stated),–
1210,288,10,CC[C@@H]1c2nnc(C)n2-c2cnc(Nc3ccc(C(=O)NC4CCN(C(=O)CCCCCNc5cccc6c5CN(C5CCC(=O)NC5=O)C6=O)CC4)cc3OC)nc2N1CC1CCCCC1 (some centres not stated),–
5140,344,85,CC[C@@H]1c2nnc(C)n2-c2cnc(Nc3ccc(C(=O)NC4CCN(CCCCCCCCOc5cccc6c5C(=O)N(C5CCC(=O)NC5=O)C6=O)CC4)cc3OC)nc2N1CC1CCCCC1 (some centres not stated),–
1840,658,10,CC[C@@H]1c2nnc(C)n2-c2cnc(Nc3ccc(C(=O)NC4CCN(C(=O)CCCCCCOc5cccc6c5C(=O)N(C5CCC(=O)NC5=O)C6=O)CC4)cc3OC)nc2N1CC1CCCCC1 (some centres not stated),–
–,–,–,CC[C@@H]1c2nnc(C)n2-c2cnc(Nc3ccc(C(=O)NC4CCN(C)CC4)cc3OC)nc2N1CC1CCCCC1,IC50 (DU-145 [3]): 1460 nM; IC50 (PC-3 [4]): 1400 nM; IC50 (VCaP [5]): 628 nM; IC50 (LNCaP [6]): 1450 nM; IC50 (CWR22R [7]): 580 nM; inhibition (CWR22R [8]): Active; inhibition (PC-3 [9]): Active; inhibition (DU-145 [10]): Active; inhibition at 0.001 µM (LNCaP [11]): 100%; inhibition at 0.001 µM (CWR22R [12]): 100%; inhibition (DU-145 [13]): Active; Activity (CWR22R [14]): Active; Activity (CWR22R [15]): Active; Activity (CWR22R [16]): Active; Activity (CWR22R [17]): Active; Activity (CWR22R [18]): Active; Activity (CWR22R [19]): Active
5570,284,153,CC[C@@H]1c2nnc(C)n2-c2cnc(Nc3ccc(C(=O)NC4CCN(CCCCCCCCCCOc5cccc6c5C(=O)N(C5CCC(=O)NC5=O)C6=O)CC4)cc3OC)nc2N1CC1CCCCC1 (some centres not stated),–
1230,435,7,CC[C@@H]1c2nnc(C)n2-c2cnc(Nc3ccc(C(=O)NC4CCN(C(=O)CCCCCOc5cccc6c5C(=O)N(C5CCC(=O)NC5=O)C6=O)CC4)cc3OC)nc2N1CC1CCCCC1 (some centres not stated),–
1190,370,13,CC[C@@H]1c2nnc(C)n2-c2cnc(Nc3ccc(C(=O)NC4CCN(C(=O)CCCCOc5cccc6c5C(=O)N(C5CCC(=O)NC5=O)C6=O)CC4)cc3OC)nc2N1CC1CCCCC1 (some centres not stated),–
652,190,671,CC[C@@H]1c2nnc(C)n2-c2cnc(Nc3ccc(C(=O)NC4CCN(C(=O)CCCCCCC(=O)Nc5cccc6c5CN(C5CCC(=O)NC5=O)C6=O)CC4)cc3OC)nc2N1CC1CCCCC1 (some centres not stated),–
2430,121,184,CC[C@@H]1c2nnc(C)n2-c2cnc(Nc3ccc(C(=O)NC4CCN(CCCCCCOc5cccc6c5C(=O)N(C5CCC(=O)NC5=O)C6=O)CC4)cc3OC)nc2N1CC1CCCCC1 (some centres not stated),–
1120,151,21,CC[C@@H]1c2nnc(C)n2-c2cnc(Nc3ccc(C(=O)NC4CCN(CCCCCOc5cccc6c5C(=O)N(C5CCC(=O)NC5=O)C6=O)CC4)cc3OC)nc2N1CC1CCCCC1 (some centres not stated),–
310,219,359,CC[C@@H]1c2nnc(C)n2-c2cnc(Nc3ccc(C(=O)NC4CCN(CCCCNC(=O)COc5cccc6c5C(=O)C(C5CCC(=O)NC5=O)C6=O)CC4)cc3OC)nc2N1CC1CCCCC1 (some centres not stated),–
2130,225,36,CC[C@@H]1c2nnc(C)n2-c2cnc(Nc3ccc(C(=O)NC4CCN(CCCCCCCCCOc5cccc6c5C(=O)N(C5CCC(=O)NC5=O)C6=O)CC4)cc3OC)nc2N1CC1CCCCC1 (some centres not stated),–
1980,259,18,CC[C@@H]1c2nnc(C)n2-c2cnc(Nc3ccc(C(=O)NC4CCN(C(=O)CNc5cccc6c5CN(C5CCC(=O)NC5=O)C6=O)CC4)cc3OC)nc2N1CC1CCCCC1 (some centres not stated),–
788,738,18,CC[C@@H]1c2nnc(C)n2-c2cnc(Nc3ccc(C(=O)NC4CCN(C(=O)CCCOc5cccc6c5C(=O)N(C5CCC(=O)NC5=O)C6=O)CC4)cc3OC)nc2N1CC1CCCCC1 (some centres not stated),–
1250,209,8,CC[C@@H]1c2nnc(C)n2-c2cnc(Nc3ccc(C(=O)NC4CCN(CCCCCCCOc5cccc6c5C(=O)N(C5CCC(=O)NC5=O)C6=O)CC4)cc3OC)nc2N1CC1CCCCC1 (some centres not stated),Activity [20]: Active; inhibition (VCaP [21]): Active
3820,379,188,CC[C@@H]1c2nnc(C)n2-c2cnc(Nc3ccc(C(=O)NC4CCN(CCCCCCCCCCCOc5cccc6c5C(=O)N(C5CCC(=O)NC5=O)C6=O)CC4)cc3OC)nc2N1CC1CCCCC1 (some centres not stated),–
